Assay results reported in PMC4800182 (Frontiers in Microbiology, 2016).
Where a name gives a salt, the structure may show the parent alone.

Key:
[1] = biological target: T1, rNanB (Streptococcus pneumoniae serotype 4, UniProt Q54727); test: HA assay (hemagglutination of NA-treated human erythrocytes with peanut lectin), inhibition of rNanB; type: biochemical, Streptococcus pneumoniae DSM20566; conditions: 1 h incubation
T1 construct: encodes a C-terminal 6xHis-tagged NanB in size of 699 amino acid residues; 6xHis (C); made in house; host or cells: E. coli (vector pET-28a, plasmid pTNB20566)
T1 sequence (Q54727 30-697): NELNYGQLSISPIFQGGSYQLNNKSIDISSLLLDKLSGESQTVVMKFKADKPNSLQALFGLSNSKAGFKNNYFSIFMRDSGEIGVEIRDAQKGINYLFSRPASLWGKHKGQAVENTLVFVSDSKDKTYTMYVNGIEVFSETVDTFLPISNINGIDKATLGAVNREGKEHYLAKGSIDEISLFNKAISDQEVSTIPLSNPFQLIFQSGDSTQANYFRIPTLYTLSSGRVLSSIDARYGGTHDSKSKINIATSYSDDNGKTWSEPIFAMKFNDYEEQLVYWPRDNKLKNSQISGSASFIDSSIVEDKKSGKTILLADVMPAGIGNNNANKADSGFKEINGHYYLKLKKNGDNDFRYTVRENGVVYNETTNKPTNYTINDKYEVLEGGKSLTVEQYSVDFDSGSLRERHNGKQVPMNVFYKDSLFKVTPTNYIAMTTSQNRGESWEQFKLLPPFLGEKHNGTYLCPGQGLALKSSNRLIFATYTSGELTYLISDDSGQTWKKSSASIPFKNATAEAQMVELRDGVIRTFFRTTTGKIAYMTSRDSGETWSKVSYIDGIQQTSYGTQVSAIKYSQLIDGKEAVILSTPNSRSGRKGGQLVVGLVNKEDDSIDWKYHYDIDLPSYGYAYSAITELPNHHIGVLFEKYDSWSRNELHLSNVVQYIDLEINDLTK
Method: (§1) The NAI susceptibility of rNanA and rNanB was evaluated with FL assay (rNanA and rNanB diluted 1:10,000 in FL buffer; pH 6.5) and HA assay as published recently ([Richter et al., 2015]) with slight modification of the HA assay. For stability reasons, rNanA and rNanB were diluted 1:5,000 in phosphate buffered saline (PBS) containing 100 μg/mL bovine serum albumin and stored at –20°C until use. The incubation period of the recombinant proteins with the human erythrocytes was only 1 h. At least three individual experiments were performed.

[2] = biological target: T2, rNanA (Streptococcus pneumoniae, UniProt P62575); test: HA assay (hemagglutination of NA-treated human erythrocytes with peanut lectin), inhibition of rNanA; type: biochemical, Streptococcus pneumoniae DSM20566; conditions: 1 h incubation
T2 construct: made in house; host or cells: E. coli
T2 sequence (P62575 54-1035): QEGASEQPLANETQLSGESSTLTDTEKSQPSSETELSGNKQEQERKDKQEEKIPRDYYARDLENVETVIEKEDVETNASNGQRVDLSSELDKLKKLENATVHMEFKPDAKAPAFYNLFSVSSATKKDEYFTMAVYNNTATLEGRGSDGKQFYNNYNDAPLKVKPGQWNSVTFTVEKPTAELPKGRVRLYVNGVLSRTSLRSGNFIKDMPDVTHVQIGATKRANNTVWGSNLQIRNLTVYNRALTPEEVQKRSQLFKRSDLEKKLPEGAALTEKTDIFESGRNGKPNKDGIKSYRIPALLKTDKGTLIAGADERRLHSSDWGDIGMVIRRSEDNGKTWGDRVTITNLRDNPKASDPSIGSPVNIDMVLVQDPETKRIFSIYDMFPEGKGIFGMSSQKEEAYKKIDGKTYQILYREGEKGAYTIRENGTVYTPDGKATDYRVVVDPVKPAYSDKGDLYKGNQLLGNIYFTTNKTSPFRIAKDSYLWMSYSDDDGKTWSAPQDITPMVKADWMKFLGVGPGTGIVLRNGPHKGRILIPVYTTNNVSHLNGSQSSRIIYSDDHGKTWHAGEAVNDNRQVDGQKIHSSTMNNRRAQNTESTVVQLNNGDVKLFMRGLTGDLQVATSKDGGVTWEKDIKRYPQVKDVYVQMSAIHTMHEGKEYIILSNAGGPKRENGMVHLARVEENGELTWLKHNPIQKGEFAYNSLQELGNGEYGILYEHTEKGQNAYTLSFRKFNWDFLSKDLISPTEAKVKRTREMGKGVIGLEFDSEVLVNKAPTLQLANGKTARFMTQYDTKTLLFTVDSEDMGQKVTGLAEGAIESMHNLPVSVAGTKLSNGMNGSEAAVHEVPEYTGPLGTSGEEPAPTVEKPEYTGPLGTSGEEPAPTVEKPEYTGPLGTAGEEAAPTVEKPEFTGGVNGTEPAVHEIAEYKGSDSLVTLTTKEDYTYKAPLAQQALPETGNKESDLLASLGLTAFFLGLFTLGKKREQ
Method: Neuraminidase activity of both NAs was further confirmed based on hemagglutination of NA-treated human erythrocytes in the presence of peanut lectin (HA assay) as described recently ([Richter et al., 2015]; [Walther et al., 2015]).
as §1

[3] = tested on: A(H1N1)pdm09 influenza virus A/Jena/8178/09; test: Inhibition of Jena/8178 replication (yield, spread) by NAI in A549 cells in presence of rNanA; type: cell-based; conditions: for spread and yield of the virus in the presence of NanA: oseltamivir at 1 μM; for Percentage of Virus Yield after NAI Treatment, with rNanA: 48 h after infection, rNanA 1:10,000, untreated control = 100%
Method: (§2) Confluent MDCK and A549 cells were mock-infected with test medium or infected with Jena/8178 (0.1 TCID50/cell) for 1 h (37°C; 5% CO2). After three washing steps with test medium, test medium or various rNanA or rNanB dilutions (1:100 to 1:1,000,000) were added. After 48 h at 37°C the supernatant was taken and stored at –20°C until plaque titer determination (virus yield analysis). The remaining cells were fixed with ice-cold methanol for 20 min and stored after washing with PBS in PBS at 4°C until immunocytochemical staining (virus spread analysis).
(§3) To determine the virus yield in collected supernatants, plaque assays were conducted on confluent MDCK cells grown in 12-well tissue culture plates (Greiner Bio-One GmbH). Briefly, after virus adsorption (37°C; 1 h), inoculum was replaced by 1 mL test medium containing also 0.4% agarose and 50 mM magnesium chloride (VEB Laborchemikalien, Apolda, Germany). After 48 h of incubation at 37°C, cells were fixed and stained with a solution of 0.4% crystal violet in a mixture of formalin (3% v/v) and ethanol (1.67% v/v) in water overnight. Plaques were counted over a light box after removal of the agar overlay.
(§4) Virus spread was analyzed by detecting viral nucleoprotein with a monoclonal antibody (Acris GmbH, Hiddenhausen, Germany) by immunocytochemical staining according to the manufacturers protocol (DAKO, Hamburg, Germany; [Bauer et al., 2007]).
(§5) The inhibitory effect of the NAI on Jena/8178 (inhibition of virus yield and spread) was determined in absence and presence of rNanA or rNanB in A549 cells.
(§6) ^a The plaque titer of untreated control (influenzavirus A/Jena/8178/09) reached in A549 cells (48 h after infection) in the absence and presence of rNanA or rNanB was set as 100% virus yield. It was used to calculate the percentage of virus yield after NAI treatment. Mean and standard deviations were calculated of at least three assays with two replicates.

[4] = biological target: T1, rNanB; test: FL assay (MUNANA), inhibition of rNanB; type: biochemical, Streptococcus pneumoniae DSM20566; conditions: for Inhibitory Concentration of NAIs against rNanB, FL assay: rNanB diluted 1:10,000, pH 6.5, MUNANA substrate
Method: (§7) Activity of 10-fold dilutions (1:1,000 to 1:100,000) of rNanA and rNanB was determined with a fluorescence-based NA assay (FL assay) using the substrate 2-(4-methylumbelliferyl)-α-D-N-acetylneuraminic acid sodium salt hydrate (MUNANA, Sigma–Aldrich GmbH) as published ([Richter et al., 2015]). The activity of rNanB was additionally tested at pH 5. Relative FL units (RFU) were read using the microplate reader FLUOstar Omega (BMG Labtech GmbH, Ortenberg, Germany) and converted to 4-MU concentration (Sigma–Aldrich GmbH) according to the 4-MU standard curve (Supplementary Figure 1). Velocity (μM/min) and Km value (μM) for rNanA and rNanB were determined using eight MUNANA concentrations (3.13 to 400 μM) at pH 6.5. After 5 min the reaction was stopped, RFU were measured and converted to 4-MU concentrations according to the 4-MU standard curve. The Enzyme Kinetics Module of SigmaPlot 12.0 (Systat Software, San Jose, CA, USA) was applied to fit the data to the Michaelis–Menten equation using non-linear regression.
as §1

[5] = tested on: A(H1N1)pdm09 influenza virus A/Jena/8178/09; test: Inhibition of Jena/8178 replication (yield, spread) by NAI in A549 cells, without pneumococcal NA; type: cell-based; conditions: 48 h after infection, untreated control = 100%
Method: as §2, §3, §4, §5, §6

[6] = tested on: A(H1N1)pdm09 influenza virus A/Jena/8178/09; test: Inhibition of Jena/8178 replication (yield, spread) by NAI in A549 cells in presence of rNanB; type: cell-based; conditions: 48 h after infection, rNanB 1:10,000, untreated control = 100%
Method: as §2, §3, §4, §5, §6

[7] = biological target: T2, rNanA; test: FL assay (MUNANA), inhibition of rNanA; type: biochemical, Streptococcus pneumoniae DSM20566
Method: as §7, §1

[8] = biological target: Influenza Virus A/Jena/8178/09 Neuraminidase (Influenza A virus (A/Jena/8178/2009(H1N1)), UniProt A0A088CA11); test: FL assay, inhibition of viral neuraminidase; type: biochemical; conditions: A/Jena/8178/09 NA; maximum tested concentration 100 μM; read-out: Inhibitory Concentration of NAIs, FL Assay (mean IC50)
[9] = tested on: T3, rNanB; test: Fluorescence-based NA assay with eight MUNANA concentrations (3.13 to 400 uM) at pH 6.5, enzymes diluted 1:10,000, stopped after 5 min, 4-MU release fitted to the Michaelis-Menten equation by non-linear regression.; type: biochemical; conditions: n = 3
T3 construct: recombinant, expressed in E. coli from pET-28a (pTNB20566); C-terminal 6xHis tag; 699 amino acid residues
Method: as §7
(§8) Both rNanA and rNanB were expressed in E. coli and their activity was confirmed by the FL assay at pH 5 (for rNanB only) and pH 6.5 (for both rNanA and rNanB). […] Activities of both recombinant S. pneumoniae NAs were further confirmed under more physiological conditions in a hemagglutination assay (HA assay; [Richter et al., 2015]). […]

[10] = tested on: CC(=O)N[C@H]1[C@H]([C@H](O)[C@H](O)CO)O[C@@](Oc2ccc3c(C)cc(=O)oc3c2)(C(=O)O)C[C@@H]1O; test: as above; type: biochemical
Method: as §7, §8

| Compound | Inhibitory Concentration of NAIs against rNanB, HA assay [1] | Inhibitory Concentration of NAIs against rNanA, HA assay [2] | spread and yield of the virus in the presence of NanA ([3]; 48 h) | Percentage of Virus Yield after NAI Treatment, with rNanA ([3]; NAI 10 µM) [%] | Percentage of Virus Yield after NAI Treatment, with rNanA ([3]; NAI 20 µM) [%] | Inhibitory Concentration of NAIs against rNanB, FL assay [4] | Percentage of Virus Yield after NAI Treatment, without NA ([5]; NAI 10 µM) [%] | Percentage of Virus Yield after NAI Treatment, without NA ([5]; NAI 20 µM) [%] | Percentage of Virus Yield after NAI Treatment, with rNanB ([6]; NAI 20 µM) [%] | IC50 [7] [µM] | further results |
| --- | --- | --- | --- | --- | --- | --- | --- | --- | --- | --- | --- |
| COc1cc2oc(-c3ccc(O)cc3O)c(CC=C(C)C)c(=O)c2c(O)c1/C=C/C(C)C [Artocarpin] | 10.0 ± 0.0 µM | 10.0 ± 0.0 µM | inhibited | 67.3 ± 25.5 | 44.3 ± 11.0 | Not active | 70.2 ± 10.5 | 84.8 ± 15.7 | 77.1 ± 37.8 | 10 ± 6.3 |  |
| CC(=O)N[C@H]1[C@H]([C@H](O)[C@H](O)CO)OC(C(=O)O)=C[C@@H]1O [DANA, N-acetyl-2,3-dehydro-2-deoxyneuraminic acid] |  | 100.0 ± 0.0 µM | inhibited | 81.1 ± 27.9 |  |  | 78.9 ± 36.1 |  |  |  | Percentage of Virus Yield after NAI Treatment, with rNanA ([3]; NAI 50 µM): 13.5 ± 8.3%; Percentage of Virus Yield after NAI Treatment, without NA ([5]; NAI 50 µM): 34.8 ± 17.4%; Percentage of Virus Yield after NAI Treatment, with rNanB ([6]; NAI 50 µM): 27.4 ± 1.0%; IC50 [8]: 3.6 ± 0.4 µM |
| O=C(CCc1ccccc1)C[C@@H]1C[C@@H](c2ccccc2)c2c(cc(/C=C/c3ccccc3)oc2=O)O1 [Katsumadain A, katsumadain A] | 5.4 ± 4.0 µM | 3.2 ± 0.0 µM | inhibited | 67.3 ± 6.2 | 28.1 ± 13.7 |  | 54.9 ± 25.7 | 29.0 ± 15.1 | 21.0 ± 4.1 |  |  |
| CC(=O)N[C@H]1[C@H]([C@H](O)[C@H](O)CO)O[C@@](Oc2ccc3c(C)cc(=O)oc3c2)(C(=O)O)C[C@@H]1O [MUNANA, 2-(4-methylumbelliferyl)-α-D-N-acetylneuraminic acid sodium salt hydrate] |  |  |  |  |  |  |  |  |  |  | Km [9]: 684 µM |
| CC(=O)N[C@H]1[C@H]([C@H](O)[C@H](O)CO)OC(C(=O)O)=C[C@@H]1N=C(N)N [Zanamivir, zanamivir] | Not active | Not active |  |  |  | Not active |  |  |  | > 100 | antiviral effect in the presence of rNanA ([3]; 48 h, spread and yield): abolished; Percentage of Virus Yield after NAI Treatment, with rNanA ([3]; NAI 0.1 µM): 109.0 ± 35.5%; Percentage of Virus Yield after NAI Treatment, with rNanA ([3]; NAI 1 µM): 86.5 ± 46.2%; IC50 [4]: > 100 µM; Percentage of Virus Yield after NAI Treatment, without NA ([5]; NAI 0.1 µM): 4.4 ± 1.5%; Percentage of Virus Yield after NAI Treatment, without NA ([5]; NAI 1 µM): 1.4 ± 1.0%; Percentage of Virus Yield after NAI Treatment, with rNanB ([6]; NAI 0.1 µM): 6.2 ± 2.9%; Percentage of Virus Yield after NAI Treatment, with rNanB ([6]; NAI 1 µM): 0.7 ± 0.3%; Inhibitory Concentration of NAIs against rNanA, FL assay ([7]; rNanA diluted 1:10,000, pH 6.5, MUNANA substrate): Not active |
| rNanA (Streptococcus pneumoniae R6) |  |  |  |  |  |  |  |  |  |  | Km [10]: 39.70 µM |
